Data: patent US10506810B2, “Synergistic herbicidal composition” (QINGDAO KINGAGROOT RESISTANT WEED MANAGEMENT CO., LTD., priority 2015, dated 2019)
Like-named read-outs stand apart in the source and are kept apart here.

What was measured:
Experiment in all cases: pot-culture method, stem and leaf treatment in greenhouse, fresh weight inhibition rate 20 days after treatment (Gowing method)
Type in all cases: in vivo
Capsella bursa-pastoris = test system: Capsella bursa-pastoris
Procedure: (§1) Capsella bursa-pastoris, Myosoton aquaticum, Alopecurus japonicus were collected from corn fields in Huangdao Experimental Base of Shandong Province.
(§2) The above weeds were cultivated by a pot culture method. […] Full and uniform weed seeds were selected, soaked in warm water at 25° C. for 6 hours, and germinated in a 28° C. biochemical incubator (darkness). […] A certain amount of water was added to the enamel pan regularly to keep the soil moist.
(§3) The technical materials were all dissolved in acetone, and diluted with an aqueous solution containing 0.1% emulsifier T-80. The dilution is performed as required.
(§4) A ratio of the active ingredient A to the active ingredient B and amounts thereof in each group depends on the characteristics and toxicity of the two agents, as well as the main application purpose of a corresponding formulation. Based on the pre-tests in this study, the dosage of the active ingredient A and the active ingredient B applied alone and in combination were shown in the tables, and a total 15 groups were designed. Water containing the solvent and emulsifier same with the above groups but free of the agents was used as a blank control.
(§5) 3 pots with 20 weed seeds per pot were treated in one treatment with […] per treatment, that is, a total of 60 weeds were treated in one treatment.
(§6) The agents were used for only once in the experiment. In the stage of weeds with 2 leaves and 1 core, the weeds were thinned out to maintain 15 weeds per pot and 45 weeds for each treatment, then continued to be cultured to 3-5-leaves stage of Capsella bursa-pastoris and Myosoton aquaticum, and 3-leaves and 1-core stage of Alopecurus japonicus, and treated.
(§7) The well-cultured weeds were evenly placed on a platform with an area of 0.5 m^2, and a solution of agents was sprayed on the stems and leaves thereof by the 3WP-2000-type walking spray tower at a dosage of 30 kg/ha and at a spray pressure of 0.3 MPa. After all the solution was sprayed, the valve was closed. After 30 seconds, the door of the spray tower was opened, and the nutritional bowl was taken out. Then the valve was opened, and the spray tube was cleaned by spraying 50 ml of water.
(§8) A pot-culture method was employed. For the cultivation of weeds, please refer to the Section 1.2, and “Pesticide guidelines for laboratory bioactivity tests—herbicides”. As to a method for applying agents, please refer to the section 2.3.2, that is, a method for treating stems and leaves was employed.
(§9) A method for investigating absolute number was employed, wherein whole seedlings of survival weeds were cut off with a blade along the soil surface, and the fresh weight of the weeds was weighed with an analytical balance. For dead weeds, the fresh weight thereof was zero.
(§10) The investigation was performed after 20 days of the treatment for only once.
(§11) Wherein, in the formula, X represented the fresh weight inhibition rate of the active ingredient A in a dosage of P, and Y represented the fresh weight inhibition rate of the active ingredient B in a dosage of Q.

Alopecurus japonicus = test system: Alopecurus japonicus
Procedure: as §1, §2, §3, §4, §5, §6, §7, §8, §9, §10, §11

Myosoton aquaticum = test system: Myosoton aquaticum
Procedure: as §1, §2, §3, §4, §5, §6, §7, §8, §9, §10, §11

[1] = Capsella bursa-pastoris, 480 h, read-out: actual fresh weight inhibition rate

## COC(=O)c1ccc(CNS(C)(=O)=O)cc1S(=O)(=O)NC(=O)Nc1nc(OC)cc(OC)n1 [mesosulfuron-methyl]
Capsella bursa-pastoris; dosage 6 g/hm^2
  actual fresh weight inhibition rate: 24.5%
Capsella bursa-pastoris; dosage 9 g/hm^2
  actual fresh weight inhibition rate: 37.6%
Capsella bursa-pastoris; dosage 12 g/hm^2
  actual fresh weight inhibition rate: 63.4%
Alopecurus japonicus; dosage 6 g/hm^2
  actual fresh weight inhibition rate: 67.9%
Alopecurus japonicus; dosage 9 g/hm^2
  actual fresh weight inhibition rate: 73.2%
Alopecurus japonicus; dosage 12 g/hm^2
  actual fresh weight inhibition rate: 88.9%

## C[C@@H](Oc1ccc(Oc2ncc(Cl)cc2F)cc1)C(=O)O [clodinafop]
Capsella bursa-pastoris; Capsella bursa-pastoris, 40 g/hm^2
  actual fresh weight inhibition rate: 0%
Capsella bursa-pastoris; Capsella bursa-pastoris, 65 g/hm^2
  actual fresh weight inhibition rate: 0%
Capsella bursa-pastoris; Capsella bursa-pastoris, 90 g/hm^2
  actual fresh weight inhibition rate: 0%
Alopecurus japonicus; Alopecurus japonicus, 40 g/hm^2
  actual fresh weight inhibition rate: 81.3%
Alopecurus japonicus; Alopecurus japonicus, 65 g/hm^2
  actual fresh weight inhibition rate: 87.4%
Alopecurus japonicus; Alopecurus japonicus, 90 g/hm^2
  actual fresh weight inhibition rate: 95.6%

## CCc1cc(C)cc(CC)c1-c1c(OC(=O)C(C)(C)C)n2n(c1=O)CCOCC2 [pinoxaden]
Capsella bursa-pastoris; Capsella bursa-pastoris, 480 h, dosage 60 g/hm^2, read-out: actual fresh weight inhibition rate
  pest or weed control at 60 g/ha: 0%
Capsella bursa-pastoris; Capsella bursa-pastoris, 480 h, dosage 80 g/hm^2, read-out: actual fresh weight inhibition rate
  pest or weed control at 80 g/ha: 0%
Capsella bursa-pastoris; Capsella bursa-pastoris, 480 h, dosage 120 g/hm^2, read-out: actual fresh weight inhibition rate
  pest or weed control at 120 g/ha: 0%
Alopecurus japonicus; dosage 60 g/hm^2
  actual fresh weight inhibition rate: 69.2%
Alopecurus japonicus; dosage 80 g/hm^2
  actual fresh weight inhibition rate: 78.6%
Alopecurus japonicus; dosage 120 g/hm^2
  actual fresh weight inhibition rate: 85.2%

## CCO/N=C(\CC)C1=C(O)CC(c2c(C)cc(C)cc2C)CC1=O (stereo not drawn) [tralkoxydim]
Capsella bursa-pastoris; [1]
  pest or weed control at 240 g/ha: 0%
  pest or weed control at 360 g/ha: 0%
  pest or weed control at 480 g/ha: 0%
Alopecurus japonicus; Alopecurus japonicus, 240 g/hm^2
  actual fresh weight inhibition rate: 74.5%
Alopecurus japonicus; Alopecurus japonicus, 360 g/hm^2
  actual fresh weight inhibition rate: 81.2%
Alopecurus japonicus; Alopecurus japonicus, 480 g/hm^2
  actual fresh weight inhibition rate: 89.8%

## COc1nn(C(=O)[N-]S(=O)(=O)c2ccccc2OC(F)(F)F)c(=O)n1C.[Na+] [Flucarbazone-sodium]
Capsella bursa-pastoris; dosage 20 g/hm^2
  actual fresh weight inhibition rate: 25.6%
Capsella bursa-pastoris; dosage 35 g/hm^2
  actual fresh weight inhibition rate: 42.7%
Capsella bursa-pastoris; dosage 50 g/hm^2
  actual fresh weight inhibition rate: 65.1%
Alopecurus japonicus; dosage 20 g/hm^2
  actual fresh weight inhibition rate: 69.6%
Alopecurus japonicus; dosage 35 g/hm^2
  actual fresh weight inhibition rate: 80.3%
Alopecurus japonicus; dosage 50 g/hm^2
  actual fresh weight inhibition rate: 85.6%

## Cc1cc(Cl)ccc1OCC(=O)O [MCPA, 2-methyl-4-chlorophenoxy acetic acid, reference compound]
Myosoton aquaticum; dosage 300 g/hm^2
  actual fresh weight inhibition rate (%): 23.8%
Myosoton aquaticum; dosage 600 g/hm^2
  actual fresh weight inhibition rate (%): 35.6%
Myosoton aquaticum; dosage 900 g/hm^2
  actual fresh weight inhibition rate (%): 45.8%
Capsella bursa-pastoris; dosage 300 g/hm^2
  actual fresh weight inhibition rate (%): 33.2%
Capsella bursa-pastoris; dosage 600 g/hm^2
  actual fresh weight inhibition rate (%): 41.7%
Capsella bursa-pastoris; dosage 900 g/hm^2
  actual fresh weight inhibition rate (%): 60.5%

## N#Cc1cc(Br)c(O)c(Br)c1 [Bromoxynil]
Myosoton aquaticum; Myosoton aquaticum, 480 h, dosage 240 g/hm^2, read-out: actual fresh weight inhibition rate
  pest or weed control at 240 g/ha: 30.5%
Myosoton aquaticum; Myosoton aquaticum, 480 h, dosage 360 g/hm^2, read-out: actual fresh weight inhibition rate
  pest or weed control at 360 g/ha: 38.7%
Myosoton aquaticum; Myosoton aquaticum, 480 h, dosage 480 g/hm^2, read-out: actual fresh weight inhibition rate
  pest or weed control at 480 g/ha: 47.9%
Capsella bursa-pastoris; Capsella bursa-pastoris, 480 h, dosage 240 g/hm^2, read-out: actual fresh weight inhibition rate
  pest or weed control at 240 g/ha: 40.6%
Capsella bursa-pastoris; Capsella bursa-pastoris, 480 h, dosage 360 g/hm^2, read-out: actual fresh weight inhibition rate
  pest or weed control at 360 g/ha: 58.5%
Capsella bursa-pastoris; Capsella bursa-pastoris, 480 h, dosage 480 g/hm^2, read-out: actual fresh weight inhibition rate
  pest or weed control at 480 g/ha: 81.3%

## Cc1nn(C)cc1C(=O)Oc1c(C(=O)c2ccc(C(F)(F)F)cc2S(C)(=O)=O)c(C)nn1C [active ingredient A]
Myosoton aquaticum; Myosoton aquaticum, 480 h, Myosoton aquaticum (Table 19), 15 g/hm^2, read-out: actual fresh weight inhibition rate
  pest or weed control at 15 g/ha: 13.2%
Myosoton aquaticum; Myosoton aquaticum, 480 h, Myosoton aquaticum (Table 19), 30 g/hm^2, read-out: actual fresh weight inhibition rate
  pest or weed control at 30 g/ha: 16.5%
Myosoton aquaticum; Myosoton aquaticum, 480 h, Myosoton aquaticum (Table 19), 45 g/hm^2, read-out: actual fresh weight inhibition rate
  pest or weed control at 45 g/ha: 24.6%
Myosoton aquaticum; Myosoton aquaticum, 480 h, Myosoton aquaticum, 15 g/hm^2, read-out: actual fresh weight inhibition rate
  pest or weed control at 15 g/ha: 67.4%
Myosoton aquaticum; Myosoton aquaticum, 480 h, Myosoton aquaticum, 30 g/hm^2, read-out: actual fresh weight inhibition rate
  pest or weed control at 30 g/ha: 87.6%
Myosoton aquaticum; Myosoton aquaticum, 480 h, Myosoton aquaticum, 45 g/hm^2, read-out: actual fresh weight inhibition rate
  pest or weed control at 45 g/ha: 100%
Myosoton aquaticum; Myosoton aquaticum, 480 h, dosage 15 g/hm^2, read-out: actual fresh weight inhibition rate
  pest or weed control at 15 g/ha: 67.4%
Myosoton aquaticum; Myosoton aquaticum, 480 h, dosage 30 g/hm^2, read-out: actual fresh weight inhibition rate
  pest or weed control at 30 g/ha: 87.6%
Myosoton aquaticum; Myosoton aquaticum, 480 h, dosage 45 g/hm^2, read-out: actual fresh weight inhibition rate
  pest or weed control at 45 g/ha: 100%
Capsella bursa-pastoris; 480 h, Capsella bursa-pastoris, 15 g/hm^2, read-out: actual fresh weight inhibition rate
  pest or weed control at 15 g/ha: 72.3%
Capsella bursa-pastoris; 480 h, Capsella bursa-pastoris, 30 g/hm^2, read-out: actual fresh weight inhibition rate
  pest or weed control at 30 g/ha: 90.5%
Capsella bursa-pastoris; 480 h, Capsella bursa-pastoris, 45 g/hm^2, read-out: actual fresh weight inhibition rate
  pest or weed control at 45 g/ha: 100%
Alopecurus japonicus; Alopecurus japonicus, 15 g/hm^2
  actual fresh weight inhibition rate: 13.2%
Alopecurus japonicus; Alopecurus japonicus, 30 g/hm^2
  actual fresh weight inhibition rate: 16.5%
Alopecurus japonicus; Alopecurus japonicus, 45 g/hm^2
  actual fresh weight inhibition rate: 24.6%
Alopecurus japonicus; dosage 15 g/hm^2
  actual fresh weight inhibition rate: 13.2%
Alopecurus japonicus; dosage 30 g/hm^2
  actual fresh weight inhibition rate: 16.5%
Alopecurus japonicus; dosage 45 g/hm^2
  actual fresh weight inhibition rate: 24.6%

## Cc1cc(Cl)ccc1OCC(=O)[O-].[Na+] [MCPA-Na, reference compound]
Myosoton aquaticum; dosage 400 g/hm^2
  actual fresh weight inhibition rate (%): 24.8%
Myosoton aquaticum; dosage 800 g/hm^2
  actual fresh weight inhibition rate (%): 36.9%
Myosoton aquaticum; dosage 1200 g/hm^2
  actual fresh weight inhibition rate (%): 50.9%
Capsella bursa-pastoris; dosage 400 g/hm^2
  actual fresh weight inhibition rate (%): 22.1%
Capsella bursa-pastoris; dosage 800 g/hm^2
  actual fresh weight inhibition rate (%): 38.3%
Capsella bursa-pastoris; dosage 1200 g/hm^2
  actual fresh weight inhibition rate (%): 56.7%

## COc1cc(OC)n2nc(NS(=O)(=O)c3c(C(F)(F)F)ccnc3OC)nc2n1 [pyroxsulam]
Capsella bursa-pastoris; dosage 5 g/hm^2
  actual fresh weight inhibition rate: 19.4%
Capsella bursa-pastoris; dosage 10 g/hm^2
  actual fresh weight inhibition rate: 31.7%
Capsella bursa-pastoris; dosage 15 g/hm^2
  actual fresh weight inhibition rate: 55.6%
Alopecurus japonicus; dosage 5 g/hm^2
  actual fresh weight inhibition rate: 63.5%
Alopecurus japonicus; dosage 10 g/hm^2
  actual fresh weight inhibition rate: 81.9%
Alopecurus japonicus; dosage 15 g/hm^2
  actual fresh weight inhibition rate: 91.5%

## O=C(Nc1ccc(F)cc1F)c1cccnc1Oc1cccc(C(F)(F)F)c1 [diflufenican]
Myosoton aquaticum; Myosoton aquaticum, 480 h, Myosoton aquaticum, 40 g/hm^2, read-out: actual fresh weight inhibition rate
  pest or weed control at 40 g/ha: 24.1%
Myosoton aquaticum; Myosoton aquaticum, 480 h, Myosoton aquaticum, 80 g/hm^2, read-out: actual fresh weight inhibition rate
  pest or weed control at 80 g/ha: 46.2%
Myosoton aquaticum; Myosoton aquaticum, 480 h, Myosoton aquaticum, 120 g/hm^2, read-out: actual fresh weight inhibition rate
  pest or weed control at 120 g/ha: 66.5%
Capsella bursa-pastoris; 480 h, Capsella bursa-pastoris, 40 g/hm^2, read-out: actual fresh weight inhibition rate
  pest or weed control at 40 g/ha: 33.1%
Capsella bursa-pastoris; 480 h, Capsella bursa-pastoris, 80 g/hm^2, read-out: actual fresh weight inhibition rate
  pest or weed control at 80 g/ha: 48.2%
Capsella bursa-pastoris; 480 h, Capsella bursa-pastoris, 120 g/hm^2, read-out: actual fresh weight inhibition rate
  pest or weed control at 120 g/ha: 63.4%

## CCCCCCCC(=O)Oc1c(Br)cc(C#N)cc1Br [bromoxynil octanoate]
Myosoton aquaticum; Myosoton aquaticum, 480 h, dosage 190 g/hm^2, read-out: actual fresh weight inhibition rate
  pest or weed control at 190 g/ha: 25.8%
Myosoton aquaticum; Myosoton aquaticum, 480 h, dosage 375 g/hm^2, read-out: actual fresh weight inhibition rate
  pest or weed control at 375 g/ha: 38.5%
Myosoton aquaticum; Myosoton aquaticum, 480 h, dosage 560 g/hm^2, read-out: actual fresh weight inhibition rate
  pest or weed control at 560 g/ha: 57.3%
Capsella bursa-pastoris; Capsella bursa-pastoris, 480 h, dosage 190 g/hm^2, read-out: actual fresh weight inhibition rate
  pest or weed control at 190 g/ha: 42.7%
Capsella bursa-pastoris; Capsella bursa-pastoris, 480 h, dosage 375 g/hm^2, read-out: actual fresh weight inhibition rate
  pest or weed control at 375 g/ha: 55.7%
Capsella bursa-pastoris; Capsella bursa-pastoris, 480 h, dosage 560 g/hm^2, read-out: actual fresh weight inhibition rate
  pest or weed control at 560 g/ha: 78.6%
